Reference: patent US20240116985A1, “STAPLED PEPTIDES AND METHODS THEREOF” (priority 2020, published 2024)
Non-standard residues stand in square brackets, D forms with d. Residues, ends and D or L forms follow the SMILES beside them. Bta = N[C@@H](Cc1csc2ccccc12)C(=O)O; tBuAla = CC(C)(C)C[C@H](N)C(=O)O; 3Thi = N[C@@H](Cc1ccsc1)C(=O)O; αMeP = C[C@@]1(C(=O)O)CCCN1; Aib = CC(C)(N)C(=O)O

What follows are molecules tested against T1, full-length beta-Catenin (Uniprot ID P35222) (Homo sapiens, UniProt P35222) (assay: Fluorescence polarization IC50 (beta-catenin / 5FAM-TCF4 10-53 competition)). Conditions: beta-Catenin FP IC50, fluorescence polarization.
T1 construct: 10 nM full-length beta-Catenin (Uniprot ID P35222)
T1 sequence (P35222 1-781): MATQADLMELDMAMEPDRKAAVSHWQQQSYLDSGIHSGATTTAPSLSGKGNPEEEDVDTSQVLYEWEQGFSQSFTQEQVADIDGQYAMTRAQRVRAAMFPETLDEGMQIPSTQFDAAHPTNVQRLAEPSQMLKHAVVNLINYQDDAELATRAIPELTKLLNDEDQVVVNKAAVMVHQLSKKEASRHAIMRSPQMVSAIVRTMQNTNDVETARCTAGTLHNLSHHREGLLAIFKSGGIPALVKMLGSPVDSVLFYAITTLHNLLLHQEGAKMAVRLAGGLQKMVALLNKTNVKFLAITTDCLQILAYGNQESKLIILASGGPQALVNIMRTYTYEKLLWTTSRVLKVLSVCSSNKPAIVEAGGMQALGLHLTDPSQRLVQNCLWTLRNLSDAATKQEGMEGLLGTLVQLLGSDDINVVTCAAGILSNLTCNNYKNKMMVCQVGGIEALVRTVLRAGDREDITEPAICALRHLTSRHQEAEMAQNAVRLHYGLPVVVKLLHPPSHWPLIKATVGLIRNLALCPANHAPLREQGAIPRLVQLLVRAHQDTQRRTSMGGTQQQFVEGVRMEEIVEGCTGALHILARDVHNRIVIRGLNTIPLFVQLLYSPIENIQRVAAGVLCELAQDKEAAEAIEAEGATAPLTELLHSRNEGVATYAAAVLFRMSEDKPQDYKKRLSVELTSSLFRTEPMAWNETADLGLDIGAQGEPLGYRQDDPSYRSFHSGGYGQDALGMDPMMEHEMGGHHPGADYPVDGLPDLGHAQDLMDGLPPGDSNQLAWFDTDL
Assay type: binding
With `CC(=O)N1CCC[C@]12CC=CCCCC1(CCCC=CCCCOC(=O)N3CC[C@@](C(=O)N[C@@H](Cc4ccccc4Cl)C(=O)N[C@@H](Cc4csc5ccccc45)C(=O)N[C@@H](CC(C)C)C(N)=O)(C3)NC(=O)[C@H](CC(C)C)NC(=O)[C@H](Cc3ccccc3)NC(=O)[C@H](C)NC(=O)[C@H](C)NC(=O)[C@H](CC(=O)O)NC(=O)[C@H](CC(=O)O)NC1=O)NC(=O)[C@H](CC(N)=O)NC(=O)[C@H](CC(=O)O)NC2=O` (stereo partly drawn) [I-1422, Ac-PL3-Asp-Asn-B5-Asp-Asp-Ala-Ala-Phe-Leu-PyrS2-2C1F-BztA-Leu-NH2] the IC50 was 388 nM.

Same assay, conditions: fluorescence polarization; read-out: beta-Catenin FP IC50
`CC(=O)N1CCC[C@@]1(C)C(=O)N[C@@H](CC(=O)O)C(=O)N[C@@H](CC(C)(C)C)C(=O)NC(C)(C)C(=O)N[C@@H](CC(=O)O)C(=O)N[C@@H](CC(=O)O)C(=O)N[C@@H](C)C(=O)N[C@@H](C)C(=O)N[C@@H](Cc1ccccc1)C(=O)N[C@@H](CCC(N)=O)C(=O)NC(C)(C)C(=O)N[C@@H](Cc1ccsc1)C(=O)N[C@@H](Cc1csc2ccccc12)C(=O)N[C@@H](Cc1c[nH]cn1)C(N)=O` [I-2228, Ac-MePro-Asp-Npg-Aib-Asp-Asp-Ala-Ala-Phe-Gln-Aib-3thi-BztA-His-NH2] (Ac-[αMeP]D[tBuAla][Aib]DDAAFQ[Aib][3Thi][Bta]H-NH2) showed an IC50 of 2140 nM. For `CCCC[C@@H]1NC(=O)[C@H](CC(=O)O)NC(=O)[C@]2(CCCCCCC3(CCCCCCCCOC(=O)N4CC[C@@](C(=O)N[C@@H](Cc5ccccc5C(F)(F)F)C(=O)N[C@@H](Cc5csc6ccccc56)C(=O)N[C@@H](CCC(N)=O)C(N)=O)(C4)NC(=O)[C@H](CC(C)C)NC(=O)[C@H](Cc4ccccc4)NC(=O)[C@H](C)NC(=O)[C@H](C)NC(=O)[C@H](Cc4cccc(C(=O)O)c4)NC(=O)[C@H](CC(=O)O)NC3=O)NC1=O)CCCN2C(C)=O` (stereo partly drawn) [I-2531, Ac-PL3-Asp-nLeu-B5-Asp-3COOHF-Ala-Ala-Phe-Leu-PyrS2-2F3MeF-BztA-Gln-NH2], the IC50 was 179 nM. `CC(=O)N1CCC[C@]12CC=CCCCC1(CCCC=CCCCOC(=O)N3CC[C@@](C(=O)N[C@@H](Cc4ccccc4)C(=O)N[C@@H](Cc4csc5ccccc45)C(=O)N[C@@H](CCCN4CCOCC4)C(N)=O)(C3)NC(=O)[C@H](CC(C)C)NC(=O)[C@H](Cc3ccccc3)NC(=O)[C@H](C)NC(=O)[C@H](CCCCNC(C)C)NC(=O)[C@H](CCC(N)=O)NC(=O)[C@H](CC(=O)O)NC1=O)NC(=O)[C@H](CC1CCCCC1)NC(=O)[C@H](CC(N)=O)NC2=O` (stereo partly drawn) [I-2428, Ac-PL3-Asn-Cha-B5-Asp-Gln-iPrLys-Ala-Phe-Leu-PyrS2-Phe-BztA-MorphNva-NH2] showed an IC50 of 401 nM. `C[C@@H]1NC(=O)[C@H](C)NC(=O)[C@H](CC(=O)O)NC(=O)[C@H](CC(=O)O)NC(=O)C2(CCCC=CCCCOC(=O)N3CC[C@@](C(=O)N[C@@H](Cc4ccccc4)C(=O)N[C@@H](Cc4csc5ccccc45)C(=O)N[C@@H](CO)C(N)=O)(C3)NC(=O)[C@H](CO)NC(=O)[C@H](Cc3ccccc3)NC1=O)CCCC=CC[C@]1(CCCN1C(=O)CCCN(C)C)C(=O)N[C@@H](CC(=O)O)C(=O)N[C@@H](CC(C)(C)C)C(=O)N2` (stereo partly drawn) [I-1354, NdiMeButC-PL3-Asp-Npg-B5-Asp-Asp-Ala-Ala-Phe-Ser-PyrS2-Phe-BztA-Ser-NH2] was tested, and the IC50 was 48 nM. `CC(=O)N1CCC[C@]12CC=CCCCC1(CCCC=CCCCOC(=O)N3CC[C@@](C(=O)N[C@@H](Cc4ccsc4)C(=O)N[C@@H](Cc4csc5ccccc45)C(=O)N[C@@H](CCC(N)=O)C(N)=O)(C3)NC(=O)[C@H](CC(N)=O)NC(=O)[C@H](Cc3cccc(C(F)(F)F)c3)NC(=O)[C@H](C)NC(=O)[C@H](C)NC(=O)[C@H]([C@@H](C)O)NC(=O)[C@H](CC(N)=O)NC1=O)NC(=O)[C@H](CC(C)(C)C)NC(=O)[C@H](CC(=O)O)NC2=O` (stereo partly drawn) [I-2009, Ac-PL3-Asp-Npg-B5-Asn-Thr-Ala-Ala-3F3MeF-Asn-PyrS2-3Thi-BztA-Gln-NH2] gave an IC50 of 1480 nM. With `CC(=O)N1CCC[C@]12CC=CCCCC1(CCCC=CCCCOC(=O)N3CC[C@@](C(=O)N[C@@H](CC4CCCC4)C(=O)N[C@@H](Cc4csc5ccccc45)C(=O)N[C@@H](CCC(N)=O)C(N)=O)(C3)NC(=O)[C@H](CC(C)C)NC(=O)[C@H](Cc3ccccc3)NC(=O)[C@H](C)NC(=O)[C@H](C)NC(=O)[C@H](CN(CC(=O)O)CC(F)(F)F)NC(=O)[C@H](CC(=O)O)NC1=O)NC(=O)[C@H](CC(C)(C)C)NC(=O)[C@H](CC(=O)O)NC2=O` (stereo partly drawn) [I-1703, Ac-PL3-Asp-Npg-B5-Asp-TfeGA-Ala-Ala-Phe-Leu-PyrS2-CypA-BztA-Gln-NH2] the IC50 was 24 nM. With `CC(=O)N1CCC[C@]12CC=CCCCC1(CCCC=CCCCOC(=O)N3CC[C@@](C(=O)N[C@@H](Cc4ccccc4)C(=O)N[C@@H](Cc4csc5ccccc45)C(=O)N[C@@H](CCO)C(N)=O)(C3)NC(=O)[C@H](CC(C)C)NC(=O)[C@H](Cc3ccccc3)NC(=O)[C@H](C)NC(=O)[C@H](CCCCNC(C)C)NC(=O)[C@H](CCC(N)=O)NC(=O)[C@H](CC(=O)O)NC1=O)NC(=O)[C@H](CC1CCCCC1)NC(=O)[C@H](CC(N)=O)NC2=O` (stereo partly drawn) [I-2165, Ac-PL3-Asn-Cha-B5-Asp-Gln-iPrLys-Ala-Phe-Leu-PyrS2-Phe-BztA-Hse-NH2] the IC50 was 441 nM. `CC(=O)N1CCC[C@]12CCCCCCC1(CCCCCCCCOC(=O)N3CC[C@@](C(=O)N[C@@H](Cc4ccccc4C(F)(F)F)C(=O)N[C@@H](Cc4csc5ccccc45)C(=O)N[C@@H](CCC(N)=O)C(N)=O)(C3)NC(=O)[C@H](CC(C)C)NC(=O)[C@H](Cc3ccccc3)NC(=O)[C@H](C)NC(=O)[C@H](C)NC(=O)[C@H](Cc3cccc(C(=O)O)c3)NC(=O)[C@H](CC(=O)O)NC1=O)NC(=O)[C@H](CC(C)(C)C)NC(=O)[C@H](CC(=O)O)NC2=O` (stereo partly drawn) [I-1604, Ac-PL3-Asp-Npg-B5-Asp-3COOHF-Ala-Ala-Phe-Leu-PyrS2-2F3MeF-BztA-Gln-NH2] gave an IC50 of 123 nM. Work on `CC(=O)N1CCC[C@]12CCCCCCC1(CCCCCCCCOC(=O)N3CC[C@@](C(=O)N[C@@H](Cc4ccsc4)C(=O)N[C@@H](Cc4csc5ccccc45)C(=O)N[C@@H](Cc4ccccc4)C(N)=O)(C3)NC(=O)[C@H](CC(C)C)NC(=O)[C@H](Cc3ccccc3)NC(=O)[C@H](C)NC(=O)[C@H](C)NC(=O)[C@H](CN(CC(=O)O)CC(F)(F)F)NC(=O)[C@H](CC(=O)O)NC1=O)NC(=O)[C@H](CC(C)(C)C)NC(=O)[C@H](CC(=O)O)NC2=O` (stereo partly drawn) [I-1755, Ac-PL3-Asp-Npg-B5-Asp-TfeGA-Ala-Ala-Phe-Leu-PyrS2-3Thi-BztA-Phe-NH2] yielded an IC50 of 570 nM. In the case of `CC(=O)N1CCC[C@]12CC=CCCCC1(CCCC=CCCCOC(=O)N3CC[C@@](C(=O)N[C@@H](Cc4ccccc4)C(=O)N[C@@H](Cc4csc5ccccc45)C(=O)N[C@@H](CCO)C(N)=O)(C3)NC(=O)[C@H](CC(N)=O)NC(=O)[C@H](Cc3ccccc3C(N)=O)NC(=O)[C@H](C)NC(=O)[C@H](CCCCNC(C)C)NC(=O)[C@H](CCC(N)=O)NC(=O)[C@H](CC(=O)O)NC1=O)NC(=O)[C@H](CC1CCCCC1)NC(=O)[C@H](CC(N)=O)NC2=O` (stereo partly drawn) [I-2173, Ac-PL3-Asn-Cha-B5-Asp-Gln-iPrLys-Ala-2cbmf-Asn-PyrS2-Phe-BztA-Hse-NH2], the IC50 is reported as 3070 nM. Molecule `CC(=O)N1CCC[C@]12CCCCCCC1(CCCCCCCCOC(=O)N3CC[C@@](C(=O)N[C@@H](Cc4ccsc4)C(=O)N[C@@H](Cc4csc5ccccc45)C(=O)N[C@@H](CC(N)=O)C(N)=O)(C3)NC(=O)[C@H](CC(C)C)NC(=O)[C@H](Cc3ccccc3)NC(=O)[C@H](C)NC(=O)[C@H](C)NC(=O)[C@H](CN(CC(=O)O)CC(F)(F)F)NC(=O)[C@H](CC(=O)O)NC1=O)NC(=O)[C@H](CC(C)(C)C)NC(=O)[C@H](CC(=O)O)NC2=O` (stereo partly drawn) [I-1715, Ac-PL3-Asp-Npg-B5-Asp-TfeGA-Ala-Ala-Phe-Leu-PyrS2-3Thi-BztA-Asn-NH2] has an IC50 of 95 nM.
